# Molecular target: human PDE10A2 (Homo sapiens (Human), UniProt Q9Y233)
# Test: PDE10 fluorescence polarization (IMAP FP) inhibition assay
# Assay type: biochemical
# Conditions: human PDE10A2 from transfected AD293 cells; FAM-labeled cAMP 50 nM; apparent inhibition constant; read-out: PDE10A Ki
# Outline: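 Cytoplasmic lysate of AD293 cells transiently expressing human PDE10A2 (enzyme level giving 20% conversion) incubated with 50 nM FAM-cAMP in pH 7.2 Tris/MgCl2 buffer, 30 min at room temperature. IMAP binding solution added, FP read after ≥1 h; 10-point 3-fold compound titrations fitted to a four-parameter equation.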
# Sequence of human PDE10A2 (Q9Y233 267-1055): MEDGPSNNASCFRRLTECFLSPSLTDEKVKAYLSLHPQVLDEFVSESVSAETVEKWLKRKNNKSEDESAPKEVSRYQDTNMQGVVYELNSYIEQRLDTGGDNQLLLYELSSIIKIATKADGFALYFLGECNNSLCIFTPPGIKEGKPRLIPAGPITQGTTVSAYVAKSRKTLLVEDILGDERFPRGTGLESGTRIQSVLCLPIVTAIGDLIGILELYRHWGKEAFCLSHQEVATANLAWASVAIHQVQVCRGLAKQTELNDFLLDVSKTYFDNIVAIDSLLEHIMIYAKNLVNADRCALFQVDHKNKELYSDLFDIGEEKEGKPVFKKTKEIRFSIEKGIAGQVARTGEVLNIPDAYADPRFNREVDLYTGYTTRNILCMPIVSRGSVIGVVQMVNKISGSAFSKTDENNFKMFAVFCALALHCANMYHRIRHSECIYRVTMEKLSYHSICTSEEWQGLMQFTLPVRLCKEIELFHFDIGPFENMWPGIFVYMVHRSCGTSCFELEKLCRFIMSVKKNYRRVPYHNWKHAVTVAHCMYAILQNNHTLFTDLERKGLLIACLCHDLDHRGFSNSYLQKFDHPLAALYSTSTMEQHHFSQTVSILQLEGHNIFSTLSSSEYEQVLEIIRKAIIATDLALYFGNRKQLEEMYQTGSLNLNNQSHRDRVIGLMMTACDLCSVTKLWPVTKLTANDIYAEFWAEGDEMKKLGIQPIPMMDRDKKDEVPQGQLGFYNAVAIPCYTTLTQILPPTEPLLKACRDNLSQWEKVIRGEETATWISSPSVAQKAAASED
row,SMILES,Ki [nM]
1,"Cc1ccnc([C@H]2C[C@@H]2COc2nc(C)ncc2-c2ccc(C(C)(C)O)nc2)c1 (single isomer, unassigned) [Example 178]",35.6
2,"COc1ccc([C@H]2C[C@@H]2COc2nc(C)ncc2-c2ccnc(OC(C)C)c2)nc1 [Example 74, 5-(2-isopropoxypyridin-4-yl)-4-(((1S,2S)-2-(5-methoxypyridin-2-yl)cyclopropyl)methoxy)-2-methylpyrimidine]",0.18
3,"Cc1ccc([C@H]2C[C@@H]2COc2nc(C)ncc2-c2ccccc2C(F)(F)F)nc1 [Example 14, 2-methyl-4-(((1S,2S)-2-(5-methylpyridin-2-yl)cyclopropyl)methoxy)-5-(2-(trifluoromethyl)phenyl)pyrimidine]",3.1
4,"COc1ccc([C@H]2C[C@@H]2COc2nc(C)ncc2-c2cnc(O)nc2)nc1 [Example 70, 4′-(((1S,2S)-2-(5-methoxypyridin-2-yl)cyclopropyl)methoxy)-2′-methyl-5,5′-bipyrimidin-2-ol]",1.64
5,"COc1ccc([C@H]2C[C@@H]2COc2nc(C)ncc2-c2ccc(-c3noc(C)n3)cc2)nc1 [Example 251, 3-(4-(4-(((1S,2S)-2-(5-methoxypyridin-2-yl)cyclopropyl)methoxy)-2-methylpyrimidin-5-yl)phenyl)-5-methyl-1,2,4-oxadiazole]",1.97
6,"Cc1ncc(-c2ccc(C(C)O)cc2)c(OC[C@H]2C[C@@H]2c2ccc3ccccc3n2)n1 (single isomer, unassigned) [Example 35]",1.05
7,"Cc1ncc(-c2ccc(C(C)O)cc2)c(OC[C@H]2C[C@@H]2c2ccccn2)n1 (stereo partly drawn) [Example 121, 1-(4-(2-methyl-4-(((1S,2S)-2-(pyridin-2-yl)cyclopropyl)methoxy)pyrimidin-5-yl)phenyl)ethanol]",5.05
8,"Cc1ncc(-c2ccc(C3(O)CCCC3)nc2)c(OC[C@H]2C[C@@H]2c2ccccn2)n1 [Example 120, 1-(5-(2-methyl-4-(((1S,2S)-2-(pyridin-2-yl)cyclopropyl)methoxy)pyrimidin-5-yl)pyridin-2-yl)cyclopentanol]",1.04
9,"COc1ccc([C@H]2C[C@@H]2COc2nc(C)ncc2-c2ccc(C(C)(C)O)nn2)nc1 [Example 100, 2-(6-(4-(((1S,2S)-2-(5-methoxypyridin-2-yl)cyclopropyl)methoxy)-2-methylpyrimidin-5-yl)pyridazin-3-yl)propan-2-ol]",4.01
10,"COc1ccc([C@H]2C[C@@H]2COc2nc(C)ncc2-c2ccc(C(=O)O)nn2)nc1 [Example 99, 6-(4-(((1S,2S)-2-(5-methoxypyridin-2-yl)cyclopropyl)methoxy)-2-methylpyrimidin-5-yl)pyridazine-3-carboxylic acid]",2.68
11,"CCc1ccc([C@@H]2C[C@@H]2COc2nc(C)ncc2[C@H]2CC[C@@H](O)CC2)nc1 [Example 197, (1R,4s)-4-(4-(((1S,2R)-2-(5-ethylpyridin-2-yl)cyclopropyl)methoxy)-2-methylpyrimidin-5-yl)cyclohexanol]",1.73
12,"Cc1ncc(-c2ccc(C(F)(F)F)nc2)c(OC[C@H]2C[C@@H]2c2ccccn2)n1 [Example 117, 2-methyl-4-(((1S,2S)-2-(pyridin-2-yl)cyclopropyl)methoxy)-5-(6-(trifluoromethyl)pyridin-3-yl)pyrimidine]",23.5
13,"Cc1ccc([C@H]2C[C@@H]2COc2nc(C)ncc2-c2cccc(OC(C)C)c2)nc1 [Example 3, 5-(3-isopropoxyphenyl)-2-methyl-4-(((1S,2S)-2-(5-methylpyridin-2-yl)cyclopropyl)methoxy)pyrimidine]",0.3
14,"COc1nncc(-c2cnc(C)nc2OC[C@H]2C[C@@H]2c2ccc(C)cn2)c1Cl [Example 52, 4-chloro-3-methoxy-5-(2-methyl-4-(((1S,2S)-2-(5-methylpyridin-2-yl)cyclopropyl)methoxy)pyrimidin-5-yl)pyridazine]",2.36
15,"Cc1ccc([C@H]2C[C@@H]2COc2nc(C)ncc2-c2cc(O)ccn2)nc1 [Example 53, 2-(2-methyl-4-(((1S,2S)-2-(5-methylpyridin-2-yl)cyclopropyl)methoxy)pyrimidin-5-yl)pyridin-4-ol]",25.5
16,"Cc1ccc([C@H]2C[C@@H]2COc2nc(C)ncc2-c2ccc(C(C)(C)O)nc2)nc1 (single isomer, unassigned) [Example 46]",0.06
17,"COc1ccc([C@H]2C[C@@H]2COc2nc(C)ncc2-c2ccc(C(=O)NCCO)cc2)nc1 [Example 107, N-(2-hydroxyethyl)-4-(4-(((1S,2S)-2-(5-methoxypyridin-2-yl)cyclopropyl)methoxy)-2-methylpyrimidin-5-yl)benzamide]",1.06
18,"COc1ccc([C@H]2C[C@@H]2COc2nc(C)ncc2-c2ccc(-c3nc(CCl)no3)cc2)nc1 [Example 94, 3-(chloromethyl)-5-(4-(4-(((1S,2S)-2-(5-methoxypyridin-2-yl)cyclopropyl)methoxy)-2-methylpyrimidin-5-yl)phenyl)-1,2,4-oxadiazole]",1.17

row,SMILES,Ki [nM]
1,"COC(=O)c1ccc(-c2cnc(C)nc2OC[C@H]2C[C@@H]2c2ccc(C)cn2)cn1 [Example 47, methyl 5-(2-methyl-4-(((1S,2S)-2-(5-methylpyridin-2-yl)cyclopropyl)methoxy)pyrimidin-5-yl)picolinate]",2.2
2,"COc1ccc([C@H]2C[C@@H]2COc2nc(C)ncc2-c2ccc(C)nn2)nc1 [Example 102, 3-(4-(((1S,2S)-2-(5-methoxypyridin-2-yl)cyclopropyl)methoxy)-2-methylpyrimidin-5-yl)-6-methylpyridazine]",10.3
3,"Cc1ccc([C@H]2C[C@@H]2COc2nc(C)ncc2-c2ccncc2C(F)(F)F)nc1 [Example 17, 2-methyl-4-(((1S,2S)-2-(5-methylpyridin-2-yl)cyclopropyl)methoxy)-5-(3-(trifluoromethyl)pyridin-4-yl)pyrimidine]",0.59
4,"Cc1ccc([C@H]2C[C@@H]2COc2nc(C)ncc2C2CCC(=O)CC2)nc1 [Example 185, 4-(2-methyl-4-(((1S,2S)-2-(5-methylpyridin-2-yl)cyclopropyl)methoxy)pyrimidin-5-yl)cyclohexanone]",3.73
5,"CC[C@]1(O)CC[C@@H](c2cnc(C)nc2OC[C@H]2C[C@@H]2c2ccc(C)cn2)CC1 [Example 214, (cis)1-Ethyl-4-(2-methyl-4-(((1S,2S)-2-(5-methylpyridin-2-yl)cyclopropyl)methoxy)pyrimidin-5-yl)cyclohexanol]",19.4
6,"Cc1ncc([C@@H]2CCC3(C[C@H]2O)OCCO3)c(OC[C@H]2C[C@@H]2c2ccc3ccccc3n2)n1 [Example 205, (7R,8S)-8-(2-methyl-4-(((1S,2S)-2-(quinolin-2-yl)cyclopropyl)methoxy)pyrimidin-5-yl)-1,4-dioxaspiro[4.5]decan-7-ol]",7.08
7,"COc1ccc([C@H]2C[C@@H]2COc2nc(C)ncc2-c2cc(OC)nn2C)nc1 [Example 240, 5-(3-methoxy-1-methyl-1H-pyrazol-5-yl)-4-(((1S,2S)-2-(5-methoxypyridin-2-yl)cyclopropyl)methoxy)-2-methylpyrimidine]",29.9
8,"CCn1nnnc1-c1ccc(-c2cnc(C)nc2OC[C@H]2C[C@@H]2c2ccc(OC)cn2)cn1 [Example 233, 5-(6-(1-ethyl-1H-tetrazol-5-yl)pyridin-3-yl)-4-(((1S,2S)-2-(5-methoxypyridin-2-yl)cyclopropyl)methoxy)-2-methylpyrimidine]",1.16
9,"Cc1ncc(-c2ccc(C(C)(C)O)nc2)c(OC[C@H]2C[C@@H]2c2ccc(C(F)(F)F)cn2)n1 [Example 183, 2-(5-(2-methyl-4-(((1S,2S)-2-(5-(trifluoromethyl)pyridin-2-yl)cyclopropyl)methoxy)pyrimidin-5-yl)pyridin-2-yl)propan-2-ol]",13.5
10,"COc1ccc([C@H]2C[C@@H]2COc2nc(C)ncc2-c2ccc(Br)cc2)nc1 [Example 81, 5-(4-bromophenyl)-4-(((1S,2S)-2-(5-methoxypyridin-2-yl)cyclopropyl)methoxy)-2-methylpyrimidine]",4.97
11,"CCOc1cccc(-c2cnc(C)nc2OC[C@H]2C[C@@H]2c2ccc3ccccc3n2)c1 (single isomer, unassigned) [Example 40, 2,2,2-trifluoroacetate]",0.04
12,"Cc1ccc([C@H]2C[C@@H]2COc2nc(C)ncc2-c2ccc(C(O)C(C)C)nc2)nc1 (stereo partly drawn) [Example 139, 2-methyl-1-(5-(2-methyl-4-(((1S,2S)-2-(5-methylpyridin-2-yl)cyclopropyl)methoxy)pyrimidin-5-yl)pyridin-2-yl)propan-1-ol]",0.37
13,"Cc1ccc([C@H]2C[C@@H]2COc2nc(C)ncc2-c2ccc(F)c(C)c2)nc1 [Example 9, 5-(4-fluoro-3-methylphenyl)-2-methyl-4-(((1S,2S)-2-(5-methylpyridin-2-yl)cyclopropyl)methoxy)pyrimidine]",1.13
14,"COc1ccc([C@H]2C[C@@H]2COc2nc(C)ncc2-c2ccc(-c3ncon3)cc2)nc1 [Example 250, 3-(4-(4-(((1S,2S)-2-(5-methoxypyridin-2-yl)cyclopropyl)methoxy)-2-methylpyrimidin-5-yl)phenyl)-1,2,4-oxadiazole]",1.16
15,"COc1ccc([C@H]2C[C@@H]2COc2nc(C)ncc2-c2cn(C)oc2=O)nc1 [Example 243, 4-(4-(((1S,2S)-2-(5-methoxypyridin-2-yl)cyclopropyl)methoxy)-2-methylpyrimidin-5-yl)-2-methylisoxazol-5(2H)-one]",6.59
16,"Cc1ccc([C@H]2C[C@@H]2COc2nc(C)ncc2-c2cnc3[nH]ncc3c2)nc1 [Example 142, 5-(2-methyl-4-(((1S,2S)-2-(5-methylpyridin-2-yl)cyclopropyl)methoxy)pyrimidin-5-yl)-1H-pyrazolo[3,4-b]pyridine]",0.37
17,"COc1ccc(-c2cnc(C)nc2OC[C@H]2C[C@@H]2c2ccc3ccccc3n2)cc1 (single isomer, unassigned) [Example 29]",1.66

# Reference: patent US9663513B2, “Pyrimidine PDE10 inhibitors” (Merck Sharp & Dohme Corp., priority 2012, dated 2017)
